Source: ChEMBL document CHEMBL5241069, “A key review on oxadiazole analogs as potential methicillin-resistant Staphylococcus aureus (MRSA) activity: Structure-activity relationship studies” (Eur J Med Chem, 2021)
Values after ≈ are worked out from the molar mass of the structure shown.

Tests used:
Staphylococcus aureus [1] = assay: Antibacterial activity against methicillin resistant Staphylococcus aureus 42 assessed as inhibition of bacterial growth; type: functional
Staphylococcus aureus [2] = assay: Antibacterial activity against methicillin resistant Staphylococcus aureus 128 assessed as inhibition of bacterial growth; type: functional
Staphylococcus aureus [3] = assay: Antibacterial activity against methicillin resistant Staphylococcus aureus 181 assessed as inhibition of bacterial growth; type: functional
Staphylococcus aureus [4] = assay: Antibacterial activity against methicillin resistant Staphylococcus aureus 747 assessed as inhibition of bacterial growth; type: functional
Staphylococcus aureus [5] = assay: microbe, parasite or virus in culture; conditions: 032
Description: Antibacterial activity against methicillin resistant Staphylococcus aureus 032 assessed as inhibition of bacterial growth by CLSI protocol based serial dilution method

Staphylococcus aureus [6] = assay: Antibiofilm activity against methicillin resistant Staphylococcus aureus ATCC 43866 assessed as inhibition of biofilm formation incubated for 18 to 24 hrs by tissue culture plate method; type: functional; conditions: time 18-24 hrs
Staphylococcus aureus [7] = assay: Antibacterial activity against methicillin resistant Staphylococcus aureus assessed as inhibition zone by disc diffusion method; type: functional
Staphylococcus aureus [8] = assay: Antibacterial activity against methicillin resistant Staphylococcus aureus assessed as inhibition of bacterial growth by broth dilution technique; type: functional

Row | Structure (SMILES) | MIC (Staphylococcus aureus [1]) | MIC (Staphylococcus aureus [2]) | MIC (Staphylococcus aureus [3]) | MIC (Staphylococcus aureus [4]) | also measured
1 | O=c1c(F)cnc2onc(-c3ccc(Cl)cc3Cl)n12 | 116 µg/mL (≈ 388 µM) | ≥ 125 µg/mL | ≥ 125 µg/mL | ≥ 125 µg/mL | 
2 | Cc1nc(/C(=C\c2coc3ccccc3c2=O)c2ccc([N+](=O)[O-])cc2)no1 |  |  |  |  | MIC (Staphylococcus aureus [5]): > 32 µg/mL
3 | O=c1c(Br)cnc2onc(-c3ccc(Cl)cc3)n12 | 96.4 µg/mL (≈ 295 µM) | 96.3 µg/mL (≈ 295 µM) | 53.6 µg/mL (≈ 164 µM) | 59.4 µg/mL (≈ 182 µM) | 
4 | O=c1c(Br)cnc2onc(-c3c(F)cccc3F)n12 | 15.8 µg/mL (≈ 48.2 µM) | 32.4 µg/mL (≈ 98.8 µM) | 40.2 µg/mL (≈ 123 µM) | 40.2 µg/mL (≈ 123 µM) | 
5 | C=Cc1ccc(Oc2nnc(-c3cc(Br)c(Br)n3C)o2)c(OC)c1 |  |  |  |  | MIC (Staphylococcus aureus [6]): 25 µg/mL (≈ 54.9 µM)
6 | Cc1nc(/C(=C\c2coc3ccc(F)cc3c2=O)c2ccc([N+](=O)[O-])cc2)no1 |  |  |  |  | MIC (Staphylococcus aureus [5]): > 32 µg/mL
7 | Cc1cc(C)c2occ(/C=C(/c3ccc([N+](=O)[O-])cc3)c3noc(C)n3)c(=O)c2c1 |  |  |  |  | MIC (Staphylococcus aureus [5]): > 32 µg/mL
8 | Cn1c(-c2nnc(-c3cc(F)ccc3Cl)o2)cc(Br)c1Br |  |  |  |  | MIC (Staphylococcus aureus [6]): 3.12 µg/mL (≈ 7.18 µM)
9 | CCCCC/C=C/CCC(O)CCCCCCc1nnc(-c2ccccc2Cl)o1 (stereo not drawn) |  |  |  |  | inhibition zone (IZ) (Staphylococcus aureus [7]): 19.7 mm; MIC (Staphylococcus aureus [8]): 12.5 µg/mL (≈ 29.8 µM)
10 | O=c1c(F)cnc2onc(-c3ccccc3Cl)n12 | ≥ 125 µg/mL | ≥ 125 µg/mL | ≥ 125 µg/mL | ≥ 125 µg/mL | 
11 | C=CCCCCCCCc1nnc(-c2ccccc2Cl)o1 |  |  |  |  | inhibition zone (IZ) (Staphylococcus aureus [7]): 14.4 mm; MIC (Staphylococcus aureus [8]): 12.5 µg/mL (≈ 41 µM)
12 | O=c1c(F)cnc2onc(-c3ccc(Cl)cc3)n12 | 111 µg/mL (≈ 416 µM) | ≥ 125 µg/mL | ≥ 125 µg/mL | ≥ 125 µg/mL | 
13 | Cn1c(-c2nnc(-c3ccc(Cl)cc3)o2)cc(Br)c1Br |  |  |  |  | MIC (Staphylococcus aureus [6]): 1.56 µg/mL (≈ 3.74 µM)
14 | Cc1nc(/C(=C\c2coc3c(Cl)cc(Cl)cc3c2=O)c2ccc([N+](=O)[O-])cc2)no1 |  |  |  |  | MIC (Staphylococcus aureus [5]): 32 µg/mL (≈ 72 µM)
15 | O=c1c(Br)cnc2onc(-c3ccccc3)n12 | 123 µg/mL (≈ 422 µM) | ≥ 125 µg/mL | ≥ 125 µg/mL | ≥ 125 µg/mL | 
16 | CCCCCCCCCCCCCCC(Br)c1nnc(-c2ccccc2Cl)o1 (stereo not drawn) |  |  |  |  | inhibition zone (IZ) (Staphylococcus aureus [7]): 20.5 mm; MIC (Staphylococcus aureus [8]): 12.5 µg/mL (≈ 26.6 µM)
17 | O=c1c(F)cnc2onc(-c3ccc(F)cc3F)n12 | 96.4 µg/mL (≈ 361 µM) | 87.4 µg/mL (≈ 327 µM) | 100 µg/mL (≈ 375 µM) | ≥ 125 µg/mL | 
18 | Cc1ccc(-c2noc3ncc(Br)c(=O)n23)cc1 | 119 µg/mL (≈ 388 µM) | ≥ 125 µg/mL | ≥ 125 µg/mL | ≥ 125 µg/mL | 
19 | Cn1c(-c2nnc(/C=C/c3ccccc3)o2)cc(Br)c1Br |  |  |  |  | MIC (Staphylococcus aureus [6]): 6.25 µg/mL (≈ 15.3 µM)
20 | CCCCCCCC/C=C/CCCCCCc1nnc(-c2ccco2)o1 |  |  |  |  | inhibition zone (IZ) (Staphylococcus aureus [7]): 20.8 mm; MIC (Staphylococcus aureus [8]): 12.5 µg/mL (≈ 34.9 µM)
21 | CCCC(O)C/C=C/CCCCCCc1nnc(-c2ccccc2Cl)o1 (stereo not drawn) |  |  |  |  | inhibition zone (IZ) (Staphylococcus aureus [7]): 19.5 mm; MIC (Staphylococcus aureus [8]): 12.5 µg/mL (≈ 33.2 µM)
22 | O=c1c(F)cnc2onc(-c3c(F)cccc3F)n12 | 122 µg/mL (≈ 458 µM) | ≥ 125 µg/mL | 120 µg/mL (≈ 447 µM) | ≥ 125 µg/mL | 
23 | CCCCCCCC/C=C/CCCCCCc1nnc(-c2ccccc2Cl)o1 |  |  |  |  | inhibition zone (IZ) (Staphylococcus aureus [7]): 16.6 mm; MIC (Staphylococcus aureus [8]): 12.5 µg/mL (≈ 31 µM)
24 | O=c1c(F)cnc2onc(-c3cccc(F)c3F)n12 | 115 µg/mL (≈ 429 µM) | ≥ 125 µg/mL | ≥ 125 µg/mL | ≥ 125 µg/mL | 

Row | Structure (SMILES) | MIC (Staphylococcus aureus [1]) | MIC (Staphylococcus aureus [2]) | MIC (Staphylococcus aureus [3]) | MIC (Staphylococcus aureus [4]) | also measured
25 | O=c1c(F)cnc2onc(-c3cccc(Cl)c3Cl)n12 | 101 µg/mL (≈ 336 µM) | ≥ 125 µg/mL | ≥ 125 µg/mL | ≥ 125 µg/mL | 
26 | C=CCCCCCCCc1nnc(-c2ccco2)o1 |  |  |  |  | inhibition zone (IZ) (Staphylococcus aureus [7]): 11.1 mm; MIC (Staphylococcus aureus [8]): 12.5 µg/mL (≈ 48 µM)
27 | Cc1nc(/C(=C\c2coc3ccc(Br)cc3c2=O)c2ccc([N+](=O)[O-])cc2)no1 |  |  |  |  | MIC (Staphylococcus aureus [5]): > 32 µg/mL
28 | CCCCCCCCCCCCCCc1nnc(-c2ccccc2Cl)o1 |  |  |  |  | inhibition zone (IZ) (Staphylococcus aureus [7]): 12.1 mm; MIC (Staphylococcus aureus [8]): 12.5 µg/mL (≈ 33.2 µM)
29 | Cn1c(-c2nnc(-c3ccncc3)o2)cc(Br)c1Br |  |  |  |  | MIC (Staphylococcus aureus [6]): 3.12 µg/mL (≈ 8.14 µM)
30 | Cn1c(-c2nnc(-c3ccc(N)cc3)o2)cc(Br)c1Br |  |  |  |  | MIC (Staphylococcus aureus [6]): 1.56 µg/mL (≈ 3.92 µM)
31 | Cc1ccc2occ(/C=C(/c3ccc([N+](=O)[O-])cc3)c3noc(C)n3)c(=O)c2c1 |  |  |  |  | MIC (Staphylococcus aureus [5]): > 32 µg/mL
32 | CC[C@H]1OC(=O)[C@H](C)[C@@H](O[C@H]2C[C@@](C)(OC)[C@@H](O)[C@H](C)O2)[C@H](C)[C@@H](O[C@@H]2O[C@H](C)C[C@H](N(C)C)[C@H]2O)[C@](C)(O)C[C@@H](C)C(=O)[C@H](C)[C@@H](O)[C@]1(C)O [ERYTHROMYCIN] |  |  |  |  | MIC (Staphylococcus aureus [5]): > 32 µg/mL
33 | Cn1c(-c2nnc(-c3ccccc3O)o2)cc(Br)c1Br |  |  |  |  | MIC (Staphylococcus aureus [6]): 6.25 µg/mL (≈ 15.7 µM)
34 | O=c1c(Br)cnc2onc(-c3cccc(F)c3F)n12 | 20.8 µg/mL (≈ 63.4 µM) | 37.8 µg/mL (≈ 115 µM) | 42.1 µg/mL (≈ 128 µM) | 42.1 µg/mL (≈ 128 µM) | 
35 | CCCCCCCCCCCCCCc1nnc(-c2ccco2)o1 |  |  |  |  | inhibition zone (IZ) (Staphylococcus aureus [7]): 15.5 mm; MIC (Staphylococcus aureus [8]): 12.5 µg/mL (≈ 37.6 µM)
36 | O=c1c(Br)cnc2onc(-c3ccccc3Cl)n12 | 76.4 µg/mL (≈ 234 µM) | 84.4 µg/mL (≈ 258 µM) | 79.4 µg/mL (≈ 243 µM) | 79.4 µg/mL (≈ 243 µM) | 
37 | CCCCC/C=C/CCC(O)CCCCCCc1nnc(-c2ccco2)o1 (stereo not drawn) |  |  |  |  | inhibition zone (IZ) (Staphylococcus aureus [7]): 13.2 mm; MIC (Staphylococcus aureus [8]): 12.5 µg/mL (≈ 33.4 µM)
38 | CO/N=C(\C(=O)N[C@@H]1C(=O)N2C(C(=O)[O-])=C(C[N+]3(C)CCCC3)CS[C@H]12)c1csc(N)n1 | 36.5 µg/mL (≈ 76 µM) | 20 µg/mL (≈ 41.6 µM) | 15.2 µg/mL (≈ 31.6 µM) | 26.9 µg/mL (≈ 56 µM) | 
39 | O=c1c(Br)cnc2onc(-c3ccc(Br)cc3)n12 | 114 µg/mL (≈ 306 µM) | 120 µg/mL (≈ 325 µM) | ≥ 125 µg/mL | ≥ 125 µg/mL | 
40 | Cn1c(-c2nnc(-c3ccc([N+](=O)[O-])cc3)o2)cc(Br)c1Br |  |  |  |  | MIC (Staphylococcus aureus [6]): 3.12 µg/mL (≈ 7.3 µM)
41 | Cc1nc(/C(=C\c2coc3cc(C)c(Cl)cc3c2=O)c2ccc([N+](=O)[O-])cc2)no1 |  |  |  |  | MIC (Staphylococcus aureus [5]): 16 µg/mL (≈ 37.8 µM)
42 | CCCC(O)C/C=C/CCCCCCc1nnc(-c2ccco2)o1 (stereo not drawn) |  |  |  |  | inhibition zone (IZ) (Staphylococcus aureus [7]): 18.3 mm; MIC (Staphylococcus aureus [8]): 12.5 µg/mL (≈ 37.6 µM)
43 | O=c1c(Br)cnc2onc(-c3cccc(Cl)c3Cl)n12 | 86.2 µg/mL (≈ 239 µM) | 90.3 µg/mL (≈ 250 µM) | ≥ 125 µg/mL | ≥ 125 µg/mL | 
44 | Cn1c(-c2nnc(Cc3ccccc3)o2)cc(Br)c1Br |  |  |  |  | MIC (Staphylococcus aureus [6]): 6.25 µg/mL (≈ 15.7 µM)
45 | Cn1c(-c2nnc(-c3ccccc3)o2)cc(Br)c1Br |  |  |  |  | MIC (Staphylococcus aureus [6]): 6.25 µg/mL (≈ 16.3 µM)
46 | COc1ccc(-c2nnc(-c3cc(Br)c(Br)n3C)o2)cc1 |  |  |  |  | MIC (Staphylococcus aureus [6]): 1.56 µg/mL (≈ 3.78 µM)
47 | Cn1c(-c2nnc(-c3cc(Br)c(Br)[nH]3)o2)cc(Br)c1Br |  |  |  |  | MIC (Staphylococcus aureus [6]): 1.56 µg/mL (≈ 2.94 µM)
48 | CCCCCCCCCCCCCCC(Br)c1nnc(-c2ccco2)o1 (stereo not drawn) |  |  |  |  | inhibition zone (IZ) (Staphylococcus aureus [7]): 21.6 mm; MIC (Staphylococcus aureus [8]): 12.5 µg/mL (≈ 29.4 µM)
